Measurements from patent US10306886B2, “Lactam solubility” (Conopco, Inc., priority 2015, dated 2019).

Assay: Lactam solubility in water or water+alcohol (48 hours agitation, filtration, HPLC quantification)
Format: physicochemical
Design: key to Solubility Increase vs water alone: fold increase in dissolved lactam relative to water alone
Protocol: Excess solid lactam (˜3 mg) was placed in a Whatman® Mini Uniprep sample vial, fitted with a 0.45 μm nylon filter. Water or water+alcohol (500 μL) was added the mixture shaken and tapped briefly to initially disperse the solid and the mixture then agitated for 48 hours using a plate shaker fitted with a vial holder (see image below). After 48 hours, the solid was removed from the system by pressing down the plunger with integral filter on the vial (see image below). This removes the solid and provides filtered solution within the inner chamber which is then ready for analysis.
The level of lactam dissolved in solution was quantified using HPLC analysis. Samples were analysed on an Agilent 1200® series HPLC fitted with a Thermo Hypersil® Gold C18 column (15×2.1×3 μm), isocratic elution with 60/40 methanol/water (+0.1% Formic Acid), 0.4 mL/min flow rate, using a DAD detector at 285 nm. 4-(4-chlorophenyl)-5-methylene-pyrrol-2-one has a retention time of ˜2.8 minutes.
The absolute level of lactam in solution is measured and reported as an increase in solubility of lactam relative to water alone.

- Mean Lactam Level in Solution (EtOH 0% in water): 6.2 ppm
- Solubility Increase vs water alone (EtOH 0% in water): 1.00
- Mean Lactam Level in Solution (EtOH 0.5% in water): 7.9 ppm
- Solubility Increase vs water alone (EtOH 0.5% in water): 1.27
- Mean Lactam Level in Solution (EtOH 1% in water): 8.9 ppm
- Solubility Increase vs water alone (EtOH 1% in water): 1.44
- Mean Lactam Level in Solution (EtOH 2% in water): 10.7 ppm
- Solubility Increase vs water alone (EtOH 2% in water): 1.73
- Mean Lactam Level in Solution (EtOH 5% in water): 13.4 ppm
- Solubility Increase vs water alone (EtOH 5% in water): 2.16
- Mean Lactam Level in Solution (EtOH 10% in water): 18.3 ppm
- Solubility Increase vs water alone (EtOH 10% in water): 2.95
- Mean Lactam Level in Solution (EtOH 25% in water): 82.1 ppm
- Solubility Increase vs water alone (EtOH 25% in water): 13.24
- Mean Lactam Level in Solution (EtOH 50% in water): 1800.2 ppm
- Solubility Increase vs water alone (EtOH 50% in water): 290.35
- Mean Lactam Level in Solution (Glycerol 0% in water): 5.7 ppm
- Solubility Increase vs water alone (Glycerol 0% in water): 1.00
- Mean Lactam Level in Solution (Glycerol 0.5% in water): 1.7 ppm
- Solubility Increase vs water alone (Glycerol 0.5% in water): 0.29
- Mean Lactam Level in Solution (Glycerol 1% in water): 2.3 ppm
- Solubility Increase vs water alone (Glycerol 1% in water): 0.41
- Mean Lactam Level in Solution (Glycerol 2% in water): 3.1 ppm
- Solubility Increase vs water alone (Glycerol 2% in water): 0.54
- Mean Lactam Level in Solution (Glycerol 5% in water): 5.2 ppm
- Solubility Increase vs water alone (Glycerol 5% in water): 0.91
- Mean Lactam Level in Solution (Glycerol 10% in water): 9.0 ppm
- Solubility Increase vs water alone (Glycerol 10% in water): 1.59
- Mean Lactam Level in Solution (Glycerol 25% in water): 15.8 ppm
- Solubility Increase vs water alone (Glycerol 25% in water): 2.77
- Mean Lactam Level in Solution (Glycerol 50% in water): 95.3 ppm
- Solubility Increase vs water alone (Glycerol 50% in water): 16.72
- Mean Lactam Level in Solution (MeOH 0% in water): 6.2 ppm
- Solubility Increase vs water alone (MeOH 0% in water): 1.00
- Mean Lactam Level in Solution (MeOH 0.5% in water): 7.5 ppm
- Solubility Increase vs water alone (MeOH 0.5% in water): 1.20
- Mean Lactam Level in Solution (MeOH 1% in water): 9.0 ppm
- Solubility Increase vs water alone (MeOH 1% in water): 1.45
- Mean Lactam Level in Solution (MeOH 2% in water): 8.2 ppm
- Solubility Increase vs water alone (MeOH 2% in water): 1.32
- Mean Lactam Level in Solution (MeOH 5% in water): 10.4 ppm
- Solubility Increase vs water alone (MeOH 5% in water): 1.67
- Mean Lactam Level in Solution (MeOH 10% in water): 15.7 ppm
- Solubility Increase vs water alone (MeOH 10% in water): 2.52
- Mean Lactam Level in Solution (MeOH 25% in water): 48.8 ppm
- Solubility Increase vs water alone (MeOH 25% in water): 7.87
- Mean Lactam Level in Solution (MeOH 50% in water): 315.6 ppm
- Solubility Increase vs water alone (MeOH 50% in water): 50.90
SMILES: C=C1NC(=O)C=C1c1ccc(Cl)cc1 [4-(4-chlorophenyl)-5-methylene-pyrrol-2-one]
